Key:
p75^NTR receptor = target: T1, p75^NTR receptor (Homo sapiens, UniProt P08138); test: Study of the dimerization of the p75NTR receptor independently of its ligand (binding of soluble p75NTR-alkaline phosphatase to SK-N-BE Bep 75 cells); details: 1 hour preincubation at 37° C., soluble p75NTR-alkaline phosphatase 10 nM
T1 construct: the clone Bep 75, stably expressing the complete form of the human p75^NTR receptor; expressed in transfected cells; host or cells: SK-N-BE Bep 75 (human neuroblastoma clone stably expressing the receptor); the soluble p75NTR-AP came from the supernatant of transiently transfected HEK293 cells
T1 sequence (P08138 29-427): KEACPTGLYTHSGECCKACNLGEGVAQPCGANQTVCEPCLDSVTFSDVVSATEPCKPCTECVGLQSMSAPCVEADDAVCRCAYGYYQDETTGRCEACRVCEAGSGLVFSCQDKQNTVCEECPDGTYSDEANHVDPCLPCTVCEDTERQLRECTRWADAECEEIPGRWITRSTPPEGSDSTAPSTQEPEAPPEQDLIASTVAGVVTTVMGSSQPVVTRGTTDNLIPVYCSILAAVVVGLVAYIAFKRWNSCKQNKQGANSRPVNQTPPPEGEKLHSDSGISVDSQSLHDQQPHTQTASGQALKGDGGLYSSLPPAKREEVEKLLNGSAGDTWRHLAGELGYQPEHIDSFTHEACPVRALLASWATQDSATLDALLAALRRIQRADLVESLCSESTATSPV
Method: (§1) The SK-N-BE parent strain (human neuroblastoma) and the clone Bep 75, stably expressing the complete form of the human p75^NTR receptor (SK-N-BE Bep 75) are conventionally cultured in an RPMI culture medium containing FCS (5%), sodium pyruvate (1 mM) and glutamine (4 mM). For the SK-N-BE Bep 75 cells, hygromycin (200 μl/20 ml of medium) is added as selection agent.
Study of the Dimerization of the p75^NTR Receptor Independently of its Ligand
The study of the dimerization of the p75^NTR receptor is performed on a cell suspension of the strain SK-N-BE Bep 75. The cells (2.5×10^4 cells/well) are placed in wells (96-well plate) for 24 hours, and then preincubated for 1 hour at 37° C. in the presence or absence of the compounds according to the invention. Supernatent, obtained from a culture of human cells of HEK293 renal origin expressing, after 48 hours of transfection, and secreting a soluble form of the p75^NTR receptor (extracellular part of the receptor) coupled to an alkaline phosphatase, the latter at a final concentration of 10 nM, is then added. The quantification of the specific binding of the soluble receptor to the receptor present on SK-N-BE Bep 75 cells is determined by measuring the enzyme activity of the alkaline phosphatase after incubation of the cells for 1 hour at 37° C. in the presence of the supernatant. After filtering and transferring the filters into 24-well plates, the alkaline phosphatase activity is determined by adding CDP-Star chemoluminescent substrate (ready-to-use, Roche).

[1] = system: strains of human neuroblastomas SH-SY-5Y and SK-N-BE Bep 75; test: Measurement of the apoptosis (cell death detection ELISA, cytoplasmic histones associated with DNA fragments); format: cell-based; details: SH-SY-5Y (48 hours) and SK-N-BE Bep 75 (24 hours), NGF 10 ng/ml or beta-amyloid peptide 10 μM, cell line not stated, read-out: IC50 in the apoptosis test
Method: The SH-SY-5Y strain (human neuroblastoma) is conventionally cultured in a DMEM culture medium (Dulbecco's Modified Eagle's Medium) (Gibco BRL, France) containing FCS (5%) (fetal calf serum) (Boehringer Mannheim, Germany), sodium pyruvate (1 mM) and glutamine (4 mM) in collagen-covered culture flasks (Becton Dickinson, France).
as §1
Measurement of the Apoptosis
The cells (strains of human neuroblastomas SH-SY-5Y and SK-N-BE Bep 75) are placed in Petri dishes 35 mm in diameter (Biocoat collagenl, (10^5 cells/well)) in a suitable culture medium containing 5% FCS, for 24 hours. The culture medium is then removed, the cells are rinsed with PBS (Dulbecco's Phosphate-buffered saline), and then either fresh medium containing 5% FCS, or medium containing NGF (at a concentration of 10 ng/ml), or beta-amyloid peptide (A1β1-40) (at a concentration of 10 μM) is then added, in the presence or absence of the compounds according to the invention. The apoptosis levels are measured 48 hours after the treatments in the case of the strain SH-SY-5Y, and 24 hours later in the case of the strain SK-N-BE Bep 75, by quantifying the cytoplasmic histones associated with the DNA fragments (cell death detection ELISA, Boehringer Mannheim, Germany). The apoptosis levels are expressed as the amount of oligonucleosomes/10^5 cells. Each value corresponds to the average of 9 experimental points distributed over 3 independent experiments.

Row | IC50 (p75^NTR receptor) | melting point | SMILES | IC50 [1]
1 | 0.08 nM |  | CC1CN(c2cnccn2)CC(C)N1CC(=O)N1CC=C(c2cccc3ccsc23)CC1 (stereo not shown) [Compound 1, 1-(4-benzo[b]thiophen-7-yl-3,6-dihydro-2H-pyridin-1-yl)-2-(3,5-dimethyl-2,3,5,6-tetrahydro[1,2′]bipyrazinyl-4-yl)ethanone] | 
2 |  |  | C[C@@H]1CN(c2ccc3ccccc3n2)C[C@H](C)N1CC(=O)N1CC=C(c2cccc3ccsc23)CC1 [Compound 19, 1-(4-benzo[b]thiophen-7-yl-3,6-dihydro-2H-pyridin-1-yl)-2-((2S,6R)-2,6-dimethyl-4-quinolin-2-ylpiperazin-1-yl)ethanone] | 1.07 nM
3 | 1.09 nM |  | C[C@@H]1CN(c2ccc(C(F)(F)F)cn2)[C@@H](C)CN1CC(=O)N1CC=C(c2cccc3ccoc23)CC1 [Compound 14, 1-(4-benzofuran-7-yl-3,6-dihydro-2H-pyridin-1-yl)-2-[(2R,5S)-2,5-dimethyl-4-(5-trifluoromethylpyridin-2-yl)piperazin-1-yl]ethanone] | 1.33 nM
4 | 20 nM |  | C[C@@H]1CN(c2ncc(F)cn2)C[C@H](C)N1CC(=O)N1CC=C(c2cccc3ccoc23)CC1 [Compound 36, 1-(4-benzofuran-7-yl-3,6-dihydro-2H-pyridin-1-yl)-2-[(2S,6R)-4-(5-fluoropyrimidin-2-yl)-2,6-dimethylpiperazin-1-yl]ethanone] | 
5 |  | 130 to 132 °C | COC(=O)c1ccc(N2C[C@@H](C)N(CC(=O)N3CC=C(c4ccc5sccc5c4)CC3)[C@@H](C)C2)nc1 [Compound 52, Methyl 6-{(3S,5R)-4-[2-(4-benzo[b]thiophen-5-yl-3,6-dihydro-2H-pyridin-1-yl)-2-oxoethyl]-3,5-dimethylpiperazin-1-yl}nicotinate] | 
6 | 0.94 nM | 138 to 139 °C | C[C@@H]1CN(c2ccc(C(F)(F)F)cn2)C[C@H](C)N1CC(=O)N1CC=C(c2cccc3ccoc23)CC1 [Compound 34, 1-(4-benzofuran-7-yl-3,6-dihydro-2H-pyridin-1-yl)-2-[(2S,6R)-2,6-dimethyl-4-(5-trifluoromethylpyridin-2-yl)piperazin-1-yl]ethanone] | 3.39 nM
7 |  | 89 to 90 °C | O=C(CN1CCN(c2ccc(Cl)c(Cl)n2)CC1)N1CC=C(c2cccc3ccsc23)CC1 [Compound 112, 1-(4-benzo[b]thiophen-7-yl-3,6-dihydro-2H-pyridin-1-yl)-2-[4-(5,6-dichloropyridin-2-yl)piperazin-1-yl]ethanone] | 
8 |  | 119 to 120 °C | C[C@@H]1CN(c2ccc(C(F)(F)F)nc2)C[C@H](C)N1CC(=O)N1CC=C(c2cccc3ccoc23)CC1 [Compound 37, 1-(4-benzofuran-7-yl-3,6-dihydro-2H-pyridin-1-yl)-2-[(2S,6R)-2,6-dimethyl-4-(6-trifluoromethylpyridin-3-yl)piperazin-1-yl]ethanone] | 
9 |  | 170 to 171 °C | COC(=O)c1ccc(N2C3CCC2CN(CC(=O)N2CC=C(c4nccc5sccc45)CC2)C3)nc1 | 
10 |  | 159 to 160 °C | O=C(O)c1ccc(N2C3CCC2CN(CC(=O)N2CC=C(c4nccc5sccc45)CC2)C3)nc1 | 
